The test system of assay [1] is Bovine viral diarrhea virus (BVDV). In words: Pathogen reduction of BVDV in platelet and plasma-containing fluids (photosensitizer + electromagnetic radiation), TCID50. The class given is cell-based. The settings on record: fixed net radiant energy 3 Joules cm^−2. An excerpt:
FIG. 4A provides a bar graph showing the average reduction of BVDV pathogen for fluid samples having two different volumes held in containers having nontransmissive labels and exposed to a fixed net radiant energy. […] FIG. 4B provides a bar graph showing the average reduction of BVDV pathogen for fluid samples having two different volumes held in containers not having nontransmissive labels and exposed to a fixed net radiant energy equal to 3 Joules cm^−2. […] The error bars shown in FIGS. 4A and 4B correspond to standard deviations (1σ) corresponding to six independent measurements at each volume.

The test system of assay [2] is porcine parvovirus virus (PPV). In words: Pathogen reduction of PPV in platelet and plasma-containing samples at two agitation rates. The settings on record: net radiant energy by Equation V.
Method: Platelet and plasma-containing fluid samples having volumes selected over the range of about 200 ml to about 400 ml were illuminated in 1 liter fixed volume, partially transparent containers.
Electromagnetic radiation was provided by two banks of six mercury vapor fluorescent lamps (model number XG25T8E; distributed by Ushio Nichia NP-803 phosphor) positioned above and below the fluid containers. This optical geometry defines two photoreactive layers having thicknesses equal to approximately 1 millimeter corresponding to the top and bottom illuminated surfaces of the fluid. […]
Bovine viral diarrhea virus (BVDV), porcine parvovirus virus (PPV), hepatitis A virus (HAV) and S. aureus bacteria were assayed before and after illumination using TCID50 or plating methods to provide quantitative measurements of the extent of pathogen reduction achieved.
The effect of agitation rate on the extent of pathogen reduction achieved upon treatment of fluids with electromagnetic radiation was also studied by varying the agitation rate provided to the sample container during illumination. Platelet and plasma-containing samples were exposed to net radiant energies calculated using Equation V. Samples were mixed during illumination using two different agitation rates: 120 cycles per minute and 20 cycles per minute.

Turning to 7,8-dimethyl-10-ribityl isoalloxazine, the “average reduction of BVDV pathogen” value is “about 2.0 log” in assay [1] (about 230 ml sample, containers with nontransmissive labels); “about 2.3 log” in assay [1] (about 230 ml sample, containers without nontransmissive labels); “about 1.4 log” in assay [1] (about 280 ml sample, containers with nontransmissive labels); “about 1.9 log” in assay [1] (about 280 ml sample, containers without nontransmissive labels). Further, the “log decrease in the biological activity of PPV pathogens” value in assay [2] (agitation rate 20 cycles per minute) is given as 0.72 log; in assay [2] (agitation rate 120 cycles per minute), 4.65 log.
